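How tested: cells in 96-well plates exposed to compound for 48 hours at five concentrations. At the GI50, growth is halved.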 Calls of active or inactive are those of the source. Cut-off read from the data, not from the text of the source: active = GI50 up to about 1.1 µM and inactive = higher.
How the values were obtained:
Assay in all cases: NCI anticancer screen, dose series, 48 h
MOLT-4 = test system: MOLT-4
SW-620 = test system: SW-620
SK-MEL-28 = test system: SK-MEL-28
HCC 2998 = test system: HCC 2998
SK-MEL-5 = test system: SK-MEL-5
OVCAR-4 = test system: OVCAR-4
M14 = test system: M14
OVCAR-3 = test system: OVCAR-3
RPMI-8226 = test system: RPMI-8226
A498 = test system: A498
ACHN = test system: ACHN
K562 = test system: K562
UACC-257 = test system: UACC-257
HL-60 = test system: HL-60
NCI-H23 = test system: NCI-H23
SR = test system: SR
HCT-15 = test system: HCT-15
SF-539 = test system: SF-539
SN12C = test system: SN12C

Row | Compound | GI50 (MOLT-4) | GI50 (SW-620) | GI50 (SK-MEL-28) | GI50 (HCC 2998) | GI50 (SK-MEL-5) | GI50 (OVCAR-4) | GI50 (M14) | GI50 (OVCAR-3) | GI50 (RPMI-8226) | GI50 (A498) | GI50 (ACHN) | GI50 (K562) | GI50 (UACC-257) | GI50 (HL-60) | GI50 (NCI-H23) | GI50 (SR) | GI50 (HCT-15) | GI50 (SF-539) | GI50 (SN12C)
1 | COc1ccc(/C=C2\Sc3nnc(-c4ccccc4)n3N=C2c2cc(F)c(Cl)cc2Cl)cc1OC | 0.948 µM (active) | 14.2 µM (inactive) | > 100 µM (inactive) | 14.3 µM (inactive) | > 100 µM (inactive) | 18.2 µM (inactive) | 29.3 µM (inactive) | > 100 µM (inactive) | 6.04 µM (inactive) | > 100 µM (inactive) | > 100 µM (inactive) | 9.86 µM (inactive) | > 100 µM (inactive) | 0.573 µM (active) | 51.2 µM (inactive) | 2.14 µM (inactive) | 19.1 µM | > 100 µM (inactive) | 
2 | CC1=C(C)SC(=C2Sc3[n-]c(=O)[nH]c(=O)c3S2)S1.CCCC[N+](CCCC)(CCCC)CCCC | 95.1 µM (inactive) | > 100 µM (inactive) | 39.2 µM (inactive) | > 100 µM (inactive) | 28.5 µM (inactive) | > 100 µM (inactive) | 31.3 µM (inactive) | 46.1 µM (inactive) | > 100 µM (inactive) | > 100 µM (inactive) | > 100 µM (inactive) | 49.4 µM (inactive) | > 100 µM (inactive) | < 0.01 µM (active) | > 100 µM (inactive) | 35.9 µM (inactive) | > 100 µM | 44.5 µM (inactive) | > 100 µM (inactive)
3 | COc1cc(OC)c(OC)cc1/C=N/N=C(\N)NO | > 100 µM (inactive) | > 100 µM (inactive) | > 100 µM (inactive) | > 100 µM (inactive) | > 100 µM (inactive) | > 100 µM (inactive) | > 100 µM (inactive) | > 100 µM (inactive) | 68.9 µM (inactive) | > 100 µM (inactive) | 56.2 µM (inactive) | 88.7 µM (inactive) | > 100 µM (inactive) | 83.9 µM (inactive) | > 100 µM (inactive) | > 100 µM (inactive) | > 100 µM | > 100 µM (inactive) | > 100 µM (inactive)
4 | COC(=O)C1=C(C)NC(C)=C([N+](=O)[O-])C1c1cccc(NO)c1 (stereo not given) | 3.46 µM (inactive) | 4.17 µM (inactive) | 4.92 µM (inactive) | 4.53 µM (inactive) | 2.72 µM (inactive) | 6.04 µM (inactive) | 3.44 µM (inactive) | 3.9 µM (inactive) | 2.51 µM (inactive) | 6.24 µM (inactive) | 3.1 µM (inactive) | 2.72 µM (inactive) | 4.61 µM (inactive) | 2.8 µM (inactive) | 4.94 µM (inactive) | 2.53 µM (inactive) | 2.84 µM | 6.11 µM (inactive) | 4.75 µM (inactive)

— ChEMBL document CHEMBL1201862, “PubChem BioAssay data set” (2004)
